# From patent US6380202B1, “Fungicidal fluoro-substituted 7-heterocyclyl-triazolopyrimidines” (BASF Aktiengesellschaft, priority 1998, dated 2002)
# Where “and” joins values, the source holds several entries; their conditions need not be identical. Identical values can stand only once. Like-named read-outs stand apart in the source and are kept apart here.
# Experiments:
# [1] = tested on: Erysiphe graminis DC. f.sp. tritici E. Marchal; settings: in vivo
# [2] = tested on: Magnaporthe grisea f. sp. oryzae; assay type: cell-based; settings: total inhibition of mycelial growth; V8 nutrient solution; 6-12 days incubation, 18-25° C.; visual inspection
# Leptosphaeria nodorum [3] = assay: Greenhouse test, Wheat Septoria nodorum (WSN); settings: Foliar application, 2 day residual (inoculation 2 days after application)
# Pyrenophora teres = assay type: cell-based
# Botrytis cinerea = assay type: cell-based
# Phytophthora infestans = assay type: cell-based; settings: total inhibition of mycelial growth; V8 nutrient solution; 6-12 days incubation, 18-25° C.; visual inspection
# Rhizoctonia solani = assay type: cell-based
# Alternaria solani = assay type: cell-based
# Leptosphaeria nodorum [4] = assay: MIC serial dilution test, Leptosphaeria nodorum (LEPTNO); assay type: cell-based
# Puccinia recondita = settings: in vivo
# [5] = […], V8 nutrient solution, 6-12 days incubation, 18-25° C., visual inspection
# [6] = total inhibition of mycelial growth, V8 nutrient solution, 6-12 days incubation, 18-25° C., visual inspection
SMILES,Disease control (% efficacy) WPM 2 da R [1],MIC (Minimum Inhibitory Concentration) PYRIOR [2] [µg/mL],Disease control (% efficacy) WSN 2 da R (Leptosphaeria nodorum [3]; 25 ppm) [%],Disease control (% efficacy) WSN 2 da R (Leptosphaeria nodorum [3]; 100 ppm) [%],MIC (Minimum Inhibitory Concentration) PYRNTE (Pyrenophora teres) [µg/mL],MIC (Minimum Inhibitory Concentration) BOTRCI (Botrytis cinerea; [5]) [µg/mL],MIC (Minimum Inhibitory Concentration) PHYTIN (Phytophthora infestans) [µg/mL],MIC (Minimum Inhibitory Concentration) RHIZSO (Rhizoctonia solani; [5]) [µg/mL],MIC (Minimum Inhibitory Concentration) ALTESO (Alternaria solani; [5]) [µg/mL],MIC (Minimum Inhibitory Concentration) LEPTNO (Leptosphaeria nodorum [4]; [6]) [µg/mL],Disease control (% efficacy) WLR 2 da R (Puccinia recondita) [%],MIC (Minimum Inhibitory Concentration) PYRNTE (Pyrenophora teres; [5]) [µg/mL],MIC (Minimum Inhibitory Concentration) ALTESO (Alternaria solani) [µg/mL],Disease control (% efficacy) WLR 2 da C (Puccinia recondita),MIC (Minimum Inhibitory Concentration) BOTRCI (Botrytis cinerea) [µg/mL],MIC (Minimum Inhibitory Concentration) RHIZSO (Rhizoctonia solani) [µg/mL],MIC (Minimum Inhibitory Concentration) LEPTNO (Leptosphaeria nodorum [4]) [µg/mL]
"Fc1cc(F)c(-c2c(Cl)nc3ncnn3c2N2CCC(F)CC2)c(F)c1 [Example 1, 5-chloro-7-(4-fluoropiperid-1-yl)-6-(2,4,6-trifluorophenyl)-1,2,4-triazolo[1,5a]pyrimidine]",88% and 100%,1560,54,100,1560,3130,50000,12500,200,12500,,,,,,,
"FCC1CCN(c2c(-c3c(F)cccc3Cl)c(Cl)nc3ncnn23)CC1 [Example 2, 5-chloro-7-(4-fluoromethylpiperid-1-yl)-6-(2-chloro-6-fluorophenyl)-1,2,4-triazolo[1,5a]pyrimidine]",,780,17,83,,3130,>100000,>100000,390,>100000,100,3130,,,,,
"Fc1cccc(Cl)c1-c1c(Cl)nc2ncnn2c1N1CCCC(F)C1 (stereo not drawn) [Example 3, 5-chloro-6-(2-chloro-6-fluorophenyl)-7-N-(3-fluoropiperid-1-yl)-[1,2,4]triazolo[1,5-a]pyrimidine]",,6250,0,92,6250,12500,>100000,50000,,50000,,,6250,,,,
"Fc1c(F)c(F)c(-c2c(Cl)nc3ncnn3c2N2CCCC(F)C2)c(F)c1F (stereo not drawn) [Example 4, 5-chloro-7-N-(3-fluoropiperid-1-yl)-6-(pentafluorophenyl)-[1,2,4]triazolo[1,5-a]pyrimidine]",,1560,0,0,,12500,100000,6250,3130,50000,,12500,,,,,
"Fc1cccc(Cl)c1-c1c(Cl)nc2ncnn2c1N1CCC(F)(F)CC1 [Example 5, 5-chloro-6-(2-chloro-6-fluorophenyl)-7-N-(4,4-difluoropiperid-1-yl)-[1,2,4]triazolo[1,5-a]pyrimidine]",74% and 94% and 84%,200,36,98,,50000,>100000,>100000,<50,12500,,3130,,10% and 0%,,,
"FCC1CCN(c2c(-c3c(F)cc(F)cc3F)c(Cl)nc3ncnn23)CC1 [Example 6, 5-chloro-7-N-(4-fluoromethylpiperid-1-yl)-6-(2,4,6-trifluorophenyl)-[1,2,4]triazolo[1,5-a]pyrimidine]",,780,63,99,3130,,>100000,,,,100,,390,100% and 98%,3130,>100000,>100000
